In patent publication US8592448B2 (OSI Pharmaceuticals, LLC, priority 2008, dated 2013):
Where two headings read alike, the source gives them in different places.

Assays:
MKN45 cells = assay: MKN45 cell proliferation assay (CellTiter-Glo); type: cell-based; conditions: MKN45 cell line, 3 days incubation, at least duplicate experiments, read-out: Prolif. IC50
Method: The effect of inhibitors on the proliferation of MKN45 cells was determined using the following protocol. MKN45 cells were plated in Corning 3917 96-well white tissue culture treated plates in growth medium (RPMI, 10% FCS) at a density of 5000 cells/well in a total volume of 135 μL and incubated at 37° C., 5% CO2, 95% humidity overnight. The following day, one-tenth volume of a 10× concentration of compounds was added to the wells in an 8-point dilution series. The dilution series was composed of an initial 1:5 dilution of a 10 mM stock of compound in DMSO, followed by serial 1:4 dilutions in DMSO, then a 1:20 dilution in growth medium prior to the 1:10 dilution into the cell plate. Final DMSO concentration on the cells was 0.1%, there were control wells treated with both 0.1% DMSO and no DMSO. The typical dilution range is 10 μM to 0.6 nM. Once the compound was added to the cells, plates were incubated for 3 days at 37° C., 5% CO2 at 95% humidity. On the third day, after allowing all cells and reagents to come to room temperature, 25 μL of CellTiter-Glo reagent (Promega # G7573) was added to the wells. Plates were shaken on a platform for 10 minutes prior to reading luminescence for 0.1 seconds. The signal of the control wells was taken as 100% growth and growth inhibition was expressed as percent of control. IC50 values were determined from the percent of control data using a standard four-parameter model.
(§1) The IC50 values of exemplary compounds of the present invention determined in a cell proliferation assay using the MKN45 cell line according to the procedures described herein in at least duplicate experiments are abbreviated as follows and are shown in Table 2: A, IC50≦0.1 μM; B, 0.1 μM<IC50≦1 μM; C, 1 μM<IC50≦10 μM; D, IC50>10 μM; ND, not determined. The Example # of Table 2 corresponds to the compound example number as illustrated in the Examples section.

phosphorylated c-MET = target: T1, phosphorylated c-MET (Homo sapiens, UniProt P08581); assay: c-MET cell mechanistic assay (phosphorylated c-MET in MKN45 cells); type: cell-based; conditions: MKN45 cell line, four hours incubation, phosphorylated c-MET levels, at least duplicate experiments; read-out: Met mech IC50
T1 construct: endogenous in cells; host or cells: MKN45
Method: The cellular activity of the compounds of the present invention may be determined by the following procedure. MKN45 cells were plated in Falcon 3072 96-well plates in growth media (RPMI, 10% FBS, 1% L-glutamine) at a density of 5000 cells/well and incubated at 37° C., 5% CO2 overnight. The following day, one-tenth volume of a 10× concentration of compounds was added to the wells in a 6-point dilution series. The dilutions series was composed of an initial 1:5 dilution in DMSO, followed by a 1:10 dilution in growth media, for a final DMSO concentration on cells of 0.5%. Control wells were treated with 0.5% DMSO. The typical range of dilution was 10 μM to 3 nM. Once compound was added to the cells, plates were incubated for four hours at 37° C., 5% CO2. Plates were then washed in PBS, and lysed in triton-based lysis buffer. Lysates were transferred to a precoated capture plate made by Biosource (Cat # KH00281). The phosphorylated c-MET levels were measured by incubating with a rabbit polyclonal antibody against phosphorylated c-MET ([pYpYpY1230/1234/1235]) followed by an anti-rabbit antibody conjugated to HRP. Signal was measured on a Wallac Victor plate reader at 450 nm. The DMSO signal of the control wells was defined as 100% and the percent of inhibition of phosphorylated c-Met was expressed as percent of control. IC50 values were determined from the percent of control data using a standard four-parameter model.
as §1, with “in a c-MET cell mechanistic” for “in a cell proliferation”, “c-MET cell mechanistic assay using” for “a cell proliferation assay using”, “in Table 3: A, IC50≦0.1” for “in Table 2: A, IC50≦0.1”, “of Table 3 corresponds to” for “of Table 2 corresponds to”

T1 sequence (P08581 25-1390): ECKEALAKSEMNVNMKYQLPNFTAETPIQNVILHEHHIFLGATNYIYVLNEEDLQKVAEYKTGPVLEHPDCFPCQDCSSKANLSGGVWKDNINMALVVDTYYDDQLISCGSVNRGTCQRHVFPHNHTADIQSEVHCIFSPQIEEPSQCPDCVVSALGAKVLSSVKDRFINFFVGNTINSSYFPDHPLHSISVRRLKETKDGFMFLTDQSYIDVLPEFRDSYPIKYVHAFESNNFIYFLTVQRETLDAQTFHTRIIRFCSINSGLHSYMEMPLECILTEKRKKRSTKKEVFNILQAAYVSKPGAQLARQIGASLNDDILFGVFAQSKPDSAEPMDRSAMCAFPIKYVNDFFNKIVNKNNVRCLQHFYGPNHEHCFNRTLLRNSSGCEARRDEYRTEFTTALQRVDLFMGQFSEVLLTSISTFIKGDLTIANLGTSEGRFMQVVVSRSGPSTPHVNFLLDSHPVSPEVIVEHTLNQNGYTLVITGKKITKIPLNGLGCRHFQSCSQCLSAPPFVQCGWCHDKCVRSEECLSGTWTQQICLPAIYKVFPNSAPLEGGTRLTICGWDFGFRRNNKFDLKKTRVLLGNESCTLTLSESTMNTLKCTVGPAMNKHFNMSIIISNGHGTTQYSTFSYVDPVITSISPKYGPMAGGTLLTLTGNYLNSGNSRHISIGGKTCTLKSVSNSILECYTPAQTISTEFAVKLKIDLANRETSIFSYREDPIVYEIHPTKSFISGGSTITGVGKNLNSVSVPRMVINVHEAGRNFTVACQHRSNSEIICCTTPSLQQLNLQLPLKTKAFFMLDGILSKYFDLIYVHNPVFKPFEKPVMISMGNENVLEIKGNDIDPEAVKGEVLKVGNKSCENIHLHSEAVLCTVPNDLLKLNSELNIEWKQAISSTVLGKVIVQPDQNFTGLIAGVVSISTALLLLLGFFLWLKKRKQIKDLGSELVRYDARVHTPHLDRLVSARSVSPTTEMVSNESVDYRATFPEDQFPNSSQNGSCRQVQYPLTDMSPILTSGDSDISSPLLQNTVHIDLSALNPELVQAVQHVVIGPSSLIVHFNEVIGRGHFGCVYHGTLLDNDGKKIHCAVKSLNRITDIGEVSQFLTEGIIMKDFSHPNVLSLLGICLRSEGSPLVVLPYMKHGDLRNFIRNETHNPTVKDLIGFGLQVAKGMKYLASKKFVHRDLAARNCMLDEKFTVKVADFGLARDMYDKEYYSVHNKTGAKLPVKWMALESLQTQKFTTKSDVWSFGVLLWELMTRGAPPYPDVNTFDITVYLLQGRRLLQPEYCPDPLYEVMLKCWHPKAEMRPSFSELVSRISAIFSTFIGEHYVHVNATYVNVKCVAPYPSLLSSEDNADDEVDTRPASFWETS

Row | Molecule | IC50 (MKN45 cells; Homo sapiens, MKN-45, 72 h) | IC50 (phosphorylated c-MET) | IC50 (MKN45 cells)
1 | CC(c1c(Cl)ccc(F)c1Cl)c1c[nH]c2ncc(-c3cnn(C4CCN(CC(F)(F)F)CC4)c3)cc12 (centres unmarked) [Example 29, 3-[1-(2,6-Dichloro-3-fluorophenyl)ethyl]-5-{1-[1-(2,2,2-trifluoroethyl)-piperidin-4-yl]-1H-pyrazol-4-yl}-1H-pyrrolo[2,3-b]pyridine] | 100 to 1000 nM | 100 to 1000 nM | 
2 | CC(c1c(Cl)ccc(F)c1Cl)c1c[nH]c2ncc(-c3ccc(C(=O)NCCN(C)C)cc3)cc12 (centres unmarked) [Example 20, 4-{3-[1-(2,6-Dichloro-3-fluorophenyl)ethyl]-1H-pyrrolo[2,3-b]pyridin-5-yl}-N-(2-dimethylaminoethyl)benzamide] | 100 to 1000 nM | 100 to 1000 nM | 
3 | CC(c1c(Cl)ccc(F)c1Cl)c1c[nH]c2ncc(-c3cnn(C4CN(C(=O)N(C)C)C4)c3)cc12 (centres unmarked) [Example 59, 3-(4-{3-[1-(2,6-Dichloro-3-fluorophenyl)ethyl]-1H-pyrrolo[2,3-b]pyridin-5-yl}-pyrazol-1-yl)-azetidine-1-carboxylic acid dimethylamide] | 100 to 1000 nM | 100 to 1000 nM | 
4 | 2-(4-{3-[(S)-1-(2,6-Dichloro-3-fluorophenyl)ethyl]-1H-pyrrolo[2,3-b]-pyridin-5-yl}-pyrazol-1-yl)-acetamide [Example 75] |  | ≤ 100 nM | 100 to 1000 nM
5 | C[C@H](c1c(Cl)ccc(F)c1Cl)c1c[nH]c2ncc(-c3cnn(C4CCN(C(N)=O)CC4)c3)cc12 [Example 72, 4-(4-{3-[(S)-1-(2,6-Dichloro-3-fluorophenyl)ethyl]-1H-pyrrolo[2,3-b]pyridin-5-yl}-pyrazol-1-yl)-piperidine-1-carboxamide] | ≤ 100 nM | ≤ 100 nM | 
6 | CC(c1c(Cl)ccc(F)c1Cl)c1c[nH]c2ncc(-c3ccc(N)cc3)cc12 (centres unmarked) [Example 18, 4-{3-[1-(2,6-Dichloro-3-fluorophenyl)ethyl]-1H-pyrrolo[2,3-b]pyridin-5-yl}phenylamine] | 100 to 1000 nM | 100 to 1000 nM | 
7 | CC(c1c(Cl)ccc(F)c1Cl)c1c[nH]c2ncc(C3=CCN(C=O)CC3)cc12 (centres unmarked) [Example 38, 4-{3-[1-(2,6-Dichloro-3-fluorophenyl)ethyl]-1H-pyrrolo[2,3-b]pyridin-5-yl}-3,6-dihydro-2H-pyridine-1-carbaldehyde] | 100 to 1000 nM | 100 to 1000 nM | 
8 | C[C@H](c1c(Cl)ccc(F)c1Cl)c1c[nH]c2ncc(C3=CCCN(C(N)=O)C3)cc12 [Example 67, 5-{3-[(S)-1-(2,6-Dichloro-3-fluorophenyl)ethyl]-1H-pyrrolo[2,3-b]pyridin-5-yl}-3,6-dihydro-2H-pyridine-1-carboxamide] | 100 to 1000 nM | ≤ 100 nM | 
9 | C[C@H](c1c(Cl)ccc(F)c1Cl)c1c[nH]c2ncc(-c3cnn(CC(=O)N4CCOCC4)c3)cc12 [Example 78, 2-(4-{3-[(S)-1-(2,6-Dichloro-3-fluorophenyl)ethyl]-1H-pyrrolo[2,3-b]pyridin-5-yl}-pyrazol-1-yl)-1-morpholin-4-ylethanone] | ≤ 100 nM | ≤ 100 nM | 
10 | CNC(=O)c1ccc(-c2cnc3[nH]cc(C(C)c4c(Cl)ccc(F)c4Cl)c3c2)cc1 (centres unmarked) [Example 5, 4-{3-[1-(2,6-Dichloro-3-fluorophenyl)ethyl]-1H-pyrrolo[2,3-b]pyridin-5-yl}-N-methylbenzamide] | 100 to 1000 nM | 100 to 1000 nM | 
11 | CC(c1c(Cl)ccc(F)c1Cl)c1c[nH]c2ncc(-c3cnn(C4CNC4)c3)cc12 (centres unmarked) [Example 53, 5-(1-Azetidin-3-yl-1H-pyrazol-4-yl)-3-[1-(2,6-dichloro-3-fluoro-phenyl)ethyl]-1H-pyrrolo[2,3-b]pyridine] | 100 to 1000 nM | ≤ 100 nM | 
12 | C[C@H](c1c(Cl)ccc(F)c1Cl)c1c[nH]c2ncc(-c3cnn(CC(=O)N4CCN(C)CC4)c3)cc12 [Example 79, 2-(4-{3-[(S)-1-(2,6-Dichloro-3-fluorophenyl)ethyl]-1H-pyrrolo[2,3-b]-pyridin-5-yl}-pyrazol-1-yl)-1-(4-methylpiperazin-1-yl)ethanone] | ≤ 100 nM | ≤ 100 nM | 
13 | CC(c1c(Cl)ccc(F)c1Cl)c1c[nH]c2ncc(-c3cnn(C4CCN(C=O)CC4)c3)cc12 (centres unmarked) [Example 47, 4-(4-{3-[1-(2,6-Dichloro-3-fluorophenyl)ethyl]-1H-pyrrolo[2,3-b]pyridin-5-yl}-pyrazol-1-yl)-piperidine-1-carbaldehyde] | ≤ 100 nM | ≤ 100 nM | 
14 | CC(c1c(Cl)ccc(F)c1Cl)c1c[nH]c2ncc(C3=CCN(S(N)(=O)=O)CC3)cc12 (centres unmarked) [Example 46, 4-{3-[1-(2,6-Dichloro-3-fluorophenyl)ethyl]-1H-pyrrolo[2,3-b]pyridin-5-yl}-3,6-dihydro-2H-pyridine-1-sulfonic acid amide] | 100 to 1000 nM | 100 to 1000 nM | 
15 | CC(c1c(Cl)ccc(F)c1Cl)c1c[nH]c2ncc(-c3cccnc3)cc12 (centres unmarked) [Example 88, 3-[1-(2,6-Dichloro-3-fluorophenyl)ethyl]-5-pyridin-3-yl-1H-pyrrolo[2,3-b]pyridine] | 100 to 1000 nM | 100 to 1000 nM | 
16 | CC(c1c(Cl)ccc(F)c1Cl)c1c[nH]c2ncc(-c3cn[nH]c3)cc12 (centres unmarked) [Example 26, 3-[1-(2,6-Dichloro-3-fluorophenyl)-ethyl]-5-(1H-pyrazol-4-yl)-1H-pyrrolo[2,3-b]pyridine] | 100 to 1000 nM | 100 to 1000 nM | 
17 | CC(c1c(Cl)ccc(F)c1Cl)c1c[nH]c2ncc(C3=CCN(C(=O)[C@@H](C)O)CC3)cc12 (stereo partly drawn) [Example 40, (R)-1-(4-{3-[1-(2,6-Dichloro-3-fluorophenyl)ethyl]-1H-pyrrolo[2,3-b]-pyridin-5-yl}-3,6-dihydro-2H-pyridin-1-yl)-2-hydroxypropan-1-one] | 100 to 1000 nM | ≤ 100 nM | 
18 | CC(c1c(Cl)ccc(F)c1Cl)c1c[nH]c2ncc(-c3cnn(C(C)(C)CO)c3)cc12 (centres unmarked) [Example 65, 2-(4-{3-[1-(2,6-Dichloro-3-fluorophenyl)ethyl]-1H-pyrrolo[2,3-b]pyridin-5-yl}-pyrazol-1-yl)-2-methylpropan-1-ol] | 100 to 1000 nM | ≤ 100 nM | 
19 | C[C@H](c1c(Cl)ccc(F)c1Cl)c1c[nH]c2ncc(-c3cnn(C4CCN(S(C)(=O)=O)CC4)c3)cc12 [Example 73, 3-[(S)-1-(2,6-Dichloro-3-fluorophenyl)ethyl]-5-[1-(1-methane-sulfonylpiperidin-4-yl)-1H-pyrazol-4-yl]-1H-pyrrolo[2,3-b]pyridine] | ≤ 100 nM | ≤ 100 nM | 
20 | CC(c1c(Cl)ccc(F)c1Cl)c1c[nH]c2ncc(-c3ccccc3)cc12 (centres unmarked) [Example 19, 3-[1-(2,6-Dichloro-3-fluorophenyl)ethyl]-5-phenyl-1H-pyrrolo[2,3-b]-pyridine] | > 10000 nM | 1000 to 10000 nM | 
21 | CC(=O)N1CC=C(c2cnc3[nH]cc(C(C)c4c(Cl)ccc(F)c4Cl)c3c2)CC1 (centres unmarked) [Example 39, 1-(4-{3-[1-(2,6-Dichloro-3-fluorophenyl)ethyl]-1H-pyrrolo[2,3-b]pyridin-5-yl}-3,6-dihydro-2H-pyridin-1-yl)-ethanone] | 100 to 1000 nM | 100 to 1000 nM | 
22 | CC(c1c(Cl)ccc(F)c1Cl)c1c[nH]c2ncc(-c3ccc(C(=O)NCCN4CCOCC4)cc3)cc12 (centres unmarked) [Example 7, 4-{3-[1-(2,6-Dichloro-3-fluorophenyl)ethyl]-1H-pyrrolo[2,3-b]pyridin-5-yl}-N-(2-morpholin-4-ylethyl)benzamide] | 100 to 1000 nM | 100 to 1000 nM | 
